These results are taken from PMC6196658, “Activity of Thioallyl Compounds From Garlic Against Giardia duodenalis Trophozoites and in Experimental Giardiasis” (Frontiers in Cellular and Infection Microbiology, 2018).

In series [1] the test system is thiol groups exposed in G. duodenalis trophozoite proteins. Nature of the series: Thiol-modifying activity (inhibition of thiol-DTNB complexes). The format is biochemical, Giardia duodenalis. The following applies: 100 μg soluble trophozoite protein, 10 min 37°C, DTNB 412 nm. The protocol:
The technique reported by Lawson and Wang ([1993]) was followed. In these assays trophozoites were collected from 60 mL flasks, washed 3 times with PBS and resuspended in 500 μL PBS containing a 1:12.5 dilution of a commercial mixture of protease inhibitors (Complete^TM, Roche Diagnostics GmbH, Indianapolis, IN, USA) and lysed by sonication at 12 microns/60% amplitude (Ultrasonic apparatus Sonic UVX1130PB). Soluble proteins were recovered by centrifugation at 15,400 × g for 30 min at 4°C and protein concentration was determined by the Bradford technique. These samples were adjusted to a concentration of 1 mg/mL. Reactions were carried out in 1.5 mL microcentrifuge tubes with a mixture of 100 μg protein (100 μL) and NaH2PO4 45 mM pH 7.0 mM (800 μL) to which increasing volumes of TACs stocks or a positive control with the thiol derivatizing agent MMTS prepared at 50 mM in the same buffer, were added and total volume was adjusted to 1 mL. After incubation for 10 min at 37°C, 100 μL of 1.5 mM dithionitrobenzoic acid (DTNB, Ellman's reagent) were added to each tube and following incubation for 10 min at room temperature the absorbances (yellow solutions) were recorded at 412 nm (Smart Spec 3000^TM, Bio-Rad, Hercules, CA, USA). A calibration curve was obtained using increasing volumes (0–100 μL) of 15.5 mM cysteine instead protein extracts and the maximal blocking concentration (MBC) corresponding to a complete absence of thiol-DTNB complexes produced by TACs were calculated using the least-square method (Microsoft Excel^TM).

Series [2] is described as follows: Storage stability of allicin. The following applies: 1.5% (w/v) in water, 1 mL aliquots at −70°C.
Description: For stabilization and storage of ALC, the oily product was resuspended in water at 1.5% (w/v) and kept in 1 mL aliquots at −70°C until analyzed and used.
For the next series, the system named is Spironucleus vortens. Details: method as in Millet et al., 2011. The following applies: ref Millet et al., 2011; cited from earlier work.
The next series relates to Eimeria tenella. Details: method as in Alnassan et al., 2015. The following applies: ref Alnassan et al., 2015; cited from earlier work.
The test system of a further series is Entamoeba histolytica. On the set-up: method as in Ankri et al., 1997. The following applies: ref Ankri et al., 1997; cited from earlier work.
Series [3] concerns G. duodenalis trophozoites. Nature of the series: In vitro susceptibility, FDA-PI staining. The following applies: 24 h exposure. The series is classed as cell-based, Giardia duodenalis (WB strain).
Series [4] has as its system cysteine protease activities in trophozoite lysates. Description: Proteolytic activity assay (gelatin zymogram). The series is classed as biochemical, Giardia duodenalis. The following applies: 3.5 mM; bands 110, 60, 75 and 25 kDa. The protocol: Trophozoite lysates were prepared as mentioned above except that cell lysis was carried out by sonication in 1.5 mL microcentrifuge tubes under ice bath using eight 15-s pulses at 80% amplitude with resting periods of 30 s (Ultrasonic Processor mod. CV19). Protein concentration was adjusted to 2 mg/mL and aliquoted in 25 μL fractions that were incubated for 30 min room temperature with 2–5 μL stock solutions of representative TACs (ALC, DADS, and AM). The reaction mixtures were diluted in Laemmli's sample buffer, loaded in wells of 10% acrylamide-02% gelatin slab gels and these were electrophoretically analyzed using 80 V/4°C. After this, gels were incubated in a solution of triton X-100 2.5% (v/v) in water for 1 h and washed 3 times with distilled water. Bands with proteolytic activity were detected as follows: gels were incubated in acetate buffer pH 5.5 with 1 mM DTT for 16 h at 37°C under constant stirring, washed 3 times with distilled water and stained with Coomassie blue (BioRad) for 2 h at 37°C under constant stirring. Finally, gels were washed with distilled water and incubated with a solution of 5% acetic acid/40% methanol (v/v). Gel images were documented with a UVP High Performance Ultraviolet Transilluminator and software Launch DocItLS.

The test system of another series is Babesia microti. On the set-up: method as in Salama et al., 2014. The following applies: mice, 30 mg/kg orally for 5 days; ref Salama et al., 2014; cited from earlier work.
The conditions of series [5]: rat, no reference given; cited from earlier work.
The next series has as its target T1, giardipain-1 (Giardia intestinalis, UniProt P92132).
T1 construct: the 25 kDa band that contains the processed form of the cathepsin B-like protease named as giardipain-1; endogenous in cells
Description: Inhibition of cytolytic effect of giardipain-1 on IEC6 cell monolayers. The series is classed as cell-based, Giardia duodenalis. The following applies: 5.3 mM pre-incubated 30 min with giardipain-1 16 μg/mL; 100 min. How it is done: Additional assays were carried out using the MLCs of TACs (without giardipain-1) previously obtained in trophozoite cultures to monitor their toxicity. These solutions were added to monolayers of the intestinal cell line IEC6 grown in 1 cm^2-microwells and incubated for 100 min at 37°C. After incubation, supernatants were discarded and monolayers were fixed with 2% paraformaldehyde in PBS. The effects of TACs and E64 on the cytolytic effect of giardipain-1 were evaluated by light microscopy using Nomarski optics (Axioskop 40, Zeiss).

Another series concerns Plasmodium berghei. Details: method as in Coppi et al., 2006. The following applies: mice, ref Coppi et al., 2006, cited from earlier work.
The subject of series [6] is G. duodenalis trophozoites. Description: In vitro susceptibility, subculture in liquid medium (SCLM). The format is cell-based, Giardia duodenalis (WB strain). The following applies: SCLM; for IC50: Giardia duodenalis.
For series [7], the system named is G. duodenalis trophozoites. Nature of the series: Annexin V-PI flow cytometry (apoptosis/necrosis). The following applies: 0.6 mM (MLC), 24 h. The series is classed as cell-based, Giardia duodenalis. How it is done:
The identification and quantitative determinations of trophozoites were carried out as follows: (a) apoptosis or necrosis were determined using anti-annexin V-fluorescein isothiocyanate (FITC) antibodies or PI as respective markers, (b) oxidative stress was determined by formation of reactive oxygen species (ROS) with the fluorescent ROS-complexing agent 5-(and 6)-carboxy 2′7′-dichlorodihydrofluorescein diacetate (H2DCFDA), and (c) determination of trophozoites cell cycle stages (G1, S, G2, and G2/M) after exposure to ALC or to a control drug (albendazole, ABZ) was carried out as previously described (Martínez-Espinosa et al., [2015]). In all these assays 20,000 cells per sample were recorded.

Series [8] in a line: Tolerability and lethality in gerbils.
Description: Eighty male Mongolian gerbils (M. unguiculatus) 6–10 weeks old, weighted 45–60 g and sentinel-checked gerbils free of intestinal parasites were kept in individual cages and distributed in 12 groups of 6 animals per treatment and experimental infections were performed as described elsewhere (Argüello-García and Ortega-Pierres, [1997]). In brief, animals were inoculated intragastrically with 1 × 10^6 G. duodenalis trophozoites in 500 μl sterile PBS per os using gavage under ether anesthesia. Control animals received 500 μl sterile PBS each. […] As additional control, one group of animals received MTZ (38.4 mg/kg at single or double dose). […] Treatment efficacy was evaluated by determining the presence or absence of trophozoites in intestinal contents of control and treated gerbils at day 13 post-infection. […] Supernatant was collected and centrifuged at 750 × g for 10 min at 4°C, cell pellet was resuspended in 1 mL PBS and trophozoites were counted using a haemocytometer. Gerbils were scored as cured if no trophozoites were recovered from infected animals.

Structures are written as SMILES. In brackets after ≈: the same amount, converted by molar mass. Several values for one entry are separate records, joined by “and”; a condition that tells them apart may be missing. Identical values can stand only once. Like-named read-outs stand apart in the source and are kept apart here. Some results are limits rather than exact numbers.

T1 sequence (P92132 75-300): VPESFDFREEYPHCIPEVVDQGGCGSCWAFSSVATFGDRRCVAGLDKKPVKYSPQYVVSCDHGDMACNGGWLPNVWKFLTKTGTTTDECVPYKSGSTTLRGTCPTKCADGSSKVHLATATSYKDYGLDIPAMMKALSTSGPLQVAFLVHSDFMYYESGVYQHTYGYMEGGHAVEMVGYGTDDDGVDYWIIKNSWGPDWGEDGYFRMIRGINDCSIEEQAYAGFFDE

Turning to `C=CCS[S+]([O-])CC=C` (stereo not drawn) [ALC, diallyl thiosulfinate], in series [1], the “MBC (maximal blocking concentration) ± SD” value is 93.8 mmol/mg protein and 93.84 ± 12.8 mmol/mg protein. For the same compound, in series [2], the “time of retained full activity on storage” value is recorded as “up to 6 months”. Besides, the IC50 was over 1.12 mM in the series with Spironucleus vortens; 536 ± 103 µM in series [3] (Giardia duodenalis); 0.322 ± 0.023 mM in series [6] (24 h exposure (Figure 6B), read-out: IC50 ± SD); 0.32 ± 0.02 mM in series [6] (24 h exposure, read-out: IC50 (mM) ±SD). Besides, the IC99 in the series with Eimeria tenella is listed as 11.1 mM. In addition, in the series on Entamoeba histolytica, the IC60 was 500 µM. Moreover, the “MLC (mM) ±SD” value in series [3] came out at 1.285 ± 0.18 mM (≈ 209 µg/mL); in [6] (24 h exposure) it was 0.6 mM (≈ 97.4 µg/mL); in series [6] (24 h exposure, listed as Allicin) it was 0.600 ± 0.016 mM (≈ 97.4 µg/mL). For the same compound, the “effect on proteolytic bands in zymogram” value in series [4] is listed as “strongly inhibited”. Also, the parasitemia result with Babesia microti is reported as “significantly reduced parasitemia”. Moreover, the oral lethality in series [5] was 980 mg/kg. Moreover, at giardipain-1, the “effect on giardipain-1 cytopathic damage in IEC6 monolayers” value is “noticeably blocked these effects”. The mortality entry in the series with Plasmodium berghei (4 daily doses of 8 mg/kg intravenously) and in the series on Plasmodium berghei (4 daily doses of 9 mg/kg orally) was “markedly reduced mortality” each time. Also, the “concentration at which parasite replication was suppressed” value in series [6] (24 h exposure) is 600 µM. For the same compound, the “R4 cells positive for early apoptosis (annexin V+)” value in series [7] amounted to 10.2%. The “irritation in intestinal epithelium” value in series [8] (276 mg/kg single dose, treated non-infected animals, surgical examination) was “noticeable irritation in intestinal epithelium”. The same compound yielded a lethal dose in series [8] (intragastric route, gerbils) of over 400 mg/kg.
